Assay results taken from PubChem BioAssay (NCI).
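Exposure lasted 48 hours, with cells grown in 96-well plates and compounds tested at five concentrations. TGI: total growth inhibition.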

Assays:
Assay in all cases: growth of human tumour cells (NCI), 48 h
[1] = test system: KM12 colon
[2] = test system: SNB-19 CNS
[3] = test system: OVCAR-5 ovarian
[4] = test system: DLD-1 colon
[5] = test system: SK-OV-3 ovarian
[6] = test system: HT29 colon
[7] = test system: SNB-75 CNS
[8] = test system: OVCAR-4 ovarian
[9] = test system: HCT-116 colon
[10] = test system: SW-620 colon
[11] = test system: SK-MEL-28 melanoma
[12] = test system: LOX IMVI melanoma
[13] = test system: 786-0 renal
[14] = test system: UACC-62 melanoma
[15] = test system: SN12C renal
[16] = test system: SF-539 CNS
[17] = test system: A549 NSCLC
[18] = test system: M19-MEL melanoma
[19] = test system: HOP-62 NSCLC
[20] = test system: SK-MEL-5 melanoma
[21] = test system: HCC-2998 colon
[22] = test system: DMS 114 small cell lung
[23] = test system: TK-10 renal
[24] = test system: IGROV1 ovarian
[25] = test system: NCI-H23 lung
[26] = test system: NCI-H460 lung
[27] = test system: KM20L2 colon
[28] = test system: UO-31 renal
[29] = test system: EKVX NSCLC
[30] = test system: XF 498 CNS
[31] = test system: UACC-257 melanoma
[32] = test system: SF-295 CNS
[33] = test system: NCI-H226 lung
[34] = test system: CAKI-1 renal
[35] = test system: U251 CNS
[36] = test system: A498 renal
[37] = test system: SR leukemia
[38] = test system: ACHN renal
[39] = test system: MALME-3M melanoma
[40] = test system: OVCAR-8 ovarian
[41] = test system: HOP-92 NSCLC
[42] = test system: MOLT-4 leukemia
[43] = test system: RPMI-8226 leukemia
[44] = test system: RXF 393 renal
[45] = test system: SF-268 CNS
[46] = test system: M14 melanoma
[47] = test system: LXFL 529 NSCLC
[48] = test system: OVCAR-3 ovarian
[49] = test system: SNB-78 CNS
[50] = test system: SK-MEL-2 melanoma
[51] = test system: DMS 273 small cell lung
[52] = test system: CCRF-CEM leukemia
[53] = test system: HL-60(TB) leukemia
[54] = test system: NCI-H522 lung
[55] = test system: HCT-15 colon
[56] = test system: COLO 205 colon
[57] = test system: K-562 leukemia

Measured: TGI

COc1cccc(NC(=O)CC(=O)N2NC(c3ccccc3)C(N=Nc3cccc(C(=O)O)c3)C2=O)c1 (stereo not given)
not listed: [50] | [51] | [52] | [53] | [54] | [55] | [56] | [57]
> 100 µM: all other assays above

Nc1nc2c(nc(N)n2Cc2ccccc2)c(=O)[nH]1
not listed: [16] | [33] | [49]
> 100 µM: all other assays above

COC(=O)[C@]12CSCN1C(=O)C(C(C)=O)=NN2C(=O)[C@](OC)(c1ccccc1)C(F)(F)F
not listed: [4] | [5] | [21] | [31] | [34] | [36] | [37] | [41] | [52] | [53]
> 100 µM: all other assays above
